Tests used:
Cbl (aa49-434) = biological target: T1, Cbl (aa49-434) (Homo sapiens, UniProt P22681); assay: Co-expressed Cbl with BirA biochemical assay (CBL/E2-Ub binding, HTRF); settings: 0.6 nM Cbl co-expressed with BirA, read-out: co-express CBL/E2-Ub-binding assay IC50
T1 construct: Cbl (aa49-434, in-house); made in house
T1 sequence (P22681 49-434): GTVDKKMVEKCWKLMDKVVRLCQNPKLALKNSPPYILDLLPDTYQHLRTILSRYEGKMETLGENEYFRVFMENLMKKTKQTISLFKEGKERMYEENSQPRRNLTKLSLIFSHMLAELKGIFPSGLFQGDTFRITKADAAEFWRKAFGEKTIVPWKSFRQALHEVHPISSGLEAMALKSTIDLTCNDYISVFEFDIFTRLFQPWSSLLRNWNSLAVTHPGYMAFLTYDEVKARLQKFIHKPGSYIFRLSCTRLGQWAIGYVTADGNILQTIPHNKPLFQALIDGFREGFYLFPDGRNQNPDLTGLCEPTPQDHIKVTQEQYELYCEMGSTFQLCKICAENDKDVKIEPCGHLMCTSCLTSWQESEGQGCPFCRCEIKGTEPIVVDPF
Source text: (§1) The assay in the absence of a Cbl-b/Cbl inhibitor, where phosphorylation of Cbl-b/Cbl by the Src kinase allows UbcH5B-Ub to bind to Cbl-b/Cbl and brings the Bodipy-Fluorescein tagged ubiquitin in proximity to the streptavidin-terbium bound to the N-terminal biotinylated Avi-tagged Cbl-b/Cbl. […] The lack of a FRET signal indicates Cbl-b/Cbl is inhibited by the Cbl-b/Cbl inhibitor.

Cbl-b (aa36-427) = biological target: T2, Cbl-b (aa36-427) (Homo sapiens, UniProt Q13191); assay: Co-expressed Cbl-b with BirA biochemical assay (CBLB/E2-Ub binding, HTRF); settings: 0.6 nM Cbl-b co-expressed with BirA, HTRF; read-out: co-express CBLB/E2-Ub-binding assay IC50
T2 construct: Cbl-b (aa36-427, in-house); made in house
Source text: as §1

T2 sequence (Q13191 36-427): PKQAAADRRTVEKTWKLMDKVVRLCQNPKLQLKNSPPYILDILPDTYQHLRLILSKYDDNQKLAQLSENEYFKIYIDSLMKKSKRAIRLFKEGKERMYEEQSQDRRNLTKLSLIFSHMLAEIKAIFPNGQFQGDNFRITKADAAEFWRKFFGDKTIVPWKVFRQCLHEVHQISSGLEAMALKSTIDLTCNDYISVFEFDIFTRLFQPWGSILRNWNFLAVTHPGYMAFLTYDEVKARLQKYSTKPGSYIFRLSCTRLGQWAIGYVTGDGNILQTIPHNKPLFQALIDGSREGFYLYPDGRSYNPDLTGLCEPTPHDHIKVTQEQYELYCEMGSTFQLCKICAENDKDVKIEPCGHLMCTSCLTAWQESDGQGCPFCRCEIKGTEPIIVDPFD

Row | Structure (SMILES) | IC50 (Cbl (aa49-434)) | IC50 (Cbl-b (aa36-427))
1 | C[C@H](NCc1cc(C(=O)Nc2cncc([C@]3(c4nncn4C)C[C@@H](C)C3)c2)c2ncc(F)n2c1)C1CC1 [Compound A72, 6-({[(1S)-1-cyclopropylethyl]amino}methyl)-3-fluoro-N-{5-[(1r, 3s)-3-methyl-1-(4-methyl-1,2,4-triazol-3-yl)cyclobutyl]pyridin-3-yl}imidazo[1,2-a]pyridine-8-carboxamide] | 0.6 nM | 0.4 nM
2 | Cn1cnnc1[C@]1(c2cccc(NC(=O)c3cc(CNC4(C)CC4)cn4c(F)cnc34)c2)C[C@H](C)C1 [Compound A45, 3-fluoro-N-(3-((1s, 3s)-3-methyl-1-(4-methyl-4H-1,2,4-triazol-3-yl)cyclobutyl)phenyl)-6-(((1-methylcyclopropyl)amino)methyl)imidazo[1,2-a]pyridine-8-carboxamide] | 3.5 nM | 1.2 nM
3 | CC(C)CNCc1cc(C(=O)Nc2cccc([C@]3(c4nncn4C)C[C@@H](C)C3)c2)c2ncc(F)n2c1 [Compound A62, 3-fluoro-6-((isobutylamino)methyl)-N-(3-((1s, 3s)-3-methyl-1-(4-methyl-4H-1,2,4-triazol-3-yl)cyclobutyl)phenyl)imidazo[1,2-a]pyridine-8-carboxamide] | 7 nM | 1.1 nM
4 | C[C@H]1CCCN(Cc2cc(C(=O)Nc3cccc(C4(Cc5nncn5C)COC4)c3)c3nc(F)cn3c2)C1 [Compound A7, (S)-2-fluoro-N-(3-(3-((4-methyl-4H-1,2,4-triazol-3-yl)methyl)oxetan-3-yl)phenyl)-6-((3-methylpiperidin-1-yl)methyl)imidazo[1,2-a]pyridine-8-carboxamide] | 14.4 nM | 4.4 nM
5 | Cn1cnnc1[C@]1(c2cccc(NC(=O)c3cc(CNCC4CCC4)cn4ccnc34)c2)C[C@H](CC#N)C1 [Compound A43, N-(3-((1s, 3s)-3-(cyanomethyl)-1-(4-methyl-4H-1,2,4-triazol-3-yl)cyclobutyl)phenyl)-6-(((cyclobutylmethyl)amino)methyl)imidazo[1,2-a]pyridine-8-carboxamide] | 12 nM | 2 nM
6 | C[C@H](NCc1cc(C(=O)Nc2cncc([C@]3(c4nncn4C)C[C@@H](C)C3)c2)c2ncc(Cl)n2c1)C1CC1 [Compound A77, 3-chloro-6-((((S)-1-cyclopropylethyl)amino)methyl)-N-(5-((1s,3R)-3-methyl-1-(4-methyl-4H-1,2,4-triazol-3-yl)cyclobutyl)pyridin-3-yl)imidazo[1,2-a]pyridine-8-carboxamide] | 1.2 nM | 0.4 nM
7 | Cc1cnc2c(C(=O)Nc3cncc([C@]4(c5nncn5C)C[C@@H](C)C4)c3)cc(CNCC3CCC3)cn12 [Compound A56, 6-{[(cyclobutylmethyl)amino]methyl}-3-methyl-N-{5-[(1r, 3s)-3-methyl-1-(4-methyl-1,2,4-triazol-3-yl)cyclobutyl]pyridin-3-yl}imidazo[1,2-a]pyridine-8-carboxamide] | 4.1 nM | 1.5 nM
8 | C[C@H](NCc1cc(C(=O)Nc2cccc([C@]3(c4nncn4C)C[C@@H](CC#N)C3)c2)c2nccn2c1)C1CCC1 [Compound A38, N-(3-((1s,3R)-3-(cyanomethyl)-1-(4-methyl-4H-1,2,4-triazol-3-yl)cyclobutyl)phenyl)-6-((((S)-1-cyclobutylethyl)amino)methyl)imidazo[1,2-a]pyridine-8-carboxamide] | 2.4 nM | 1.4 nM

The next lines start with the values.

Row | IC50 (Cbl (aa49-434)) | IC50 (Cbl-b (aa36-427)) | Structure (SMILES)
9 | 3.84 nM | 1.22 nM | Cn1cnnc1[C@]1(c2cccc(NC(=O)c3cc(CN[C@H]4CCC(F)(F)C4)c4[nH]ccc4n3)c2)C[C@H](CC#N)C1 [Compound B17, N-(3-((1s,3S)-3-(cyanomethyl)-1-(4-methyl-4H-1,2,4-triazol-3-yl)cyclobutyl)phenyl)-7-((((R)-3,3-difluorocyclopentyl)amino)methyl)-1H-pyrrolo[3,2-b]pyridine-5-carboxamide]
10 | 15.7 nM | 0.9 nM | C[C@H]1CCCN(Cc2cc(C(=O)Nc3cccc([C@]4(c5nncn5C)C[C@@H](CC#N)C4)c3)nc3c2CCC3(C)C)C1 [Compound C9, N-(3-((1s,3R)-3-(cyanomethyl)-1-(4-methyl-4H-1,2,4-triazol-3-yl)cyclobutyl)phenyl)-7,7-dimethyl-4-(((S)-3-methylpiperidin-1-yl)methyl)-6,7-dihydro-5H-cyclopenta[b]pyridine-2-carboxamide]
11 | 77.7 nM | 10.3 nM | C[C@@H]1CN(Cc2cc(C(=O)Nc3cccc([C@]4(c5nncn5C)C[C@@H](CC#N)C4)c3)nc3cc[nH]c23)C[C@H](C)C1(F)F [Compound B19, N-(3-((1s,3S)-3-(cyanomethyl)-1-(4-methyl-4H-1,2,4-triazol-3-yl)cyclobutyl)phenyl)-7-(((3R,5S)-4,4-difluoro-3,5-dimethylpiperidin-1-yl)methyl)-1H-pyrrolo[3,2-b]pyridine-5-carboxamide]
12 | 15.6 nM | 2 nM | Cc1c[nH]c2c(CN3CCC[C@H](C)C3)cc(C(=O)Nc3cccc([C@]4(c5nncn5C)C[C@@H](CC#N)C4)c3)nc12 [Compound B10, N-(3-((1s,3R)-3-(cyanomethyl)-1-(4-methyl-4H-1,2,4-triazol-3-yl)cyclobutyl)phenyl)-3-methyl-7-(((S)-3-methylpiperidin-1-yl)methyl)-1H-pyrrolo[3,2-b]pyridine-5-carboxamide]
13 | 1.8 nM | 0.7 nM | C[C@H](NCc1cc(C(=O)Nc2cccc([C@]3(c4nncn4C)C[C@@H](C)C3)c2)nc2c1NCC2(C)C)C1CCC1 [Compound C46, 7-({[(1S)-1-cyclobutylethyl]amino}methyl)-3,3-dimethyl-N-{3-[(1r, 3s)-3-methyl-1-(4-methyl-1,2,4-triazol-3-yl)cyclobutyl]phenyl}-1H,2H-pyrrolo[3,2-b]pyridine-5-carboxamide]
14 | 21 nM | 1.8 nM | C[C@H]1CCCN(Cc2cc(C(=O)Nc3cccc([C@]4(c5nncn5C)C[C@@H](CC#N)C4)c3)nc3cn[nH]c23)C1 [Compound B8, N-(3-((1s,3R)-3-(cyanomethyl)-1-(4-methyl-4H-1,2,4-triazol-3-yl)cyclobutyl)phenyl)-7-(((S)-3-methylpiperidin-1-yl)methyl)-1H-pyrazolo[4,3-b]pyridine-5-carboxamide]
15 | 6.4 nM | 1.9 nM | C[C@H]1CCCN(Cc2cc(C(=O)Nc3cccc([C@]4(Cc5nncn5C)C[C@@H](C#N)C4)c3)nc3cc[nH]c23)C1 [Compound B7, N-(3-((1r,3S)-3-cyano-1-((4-methyl-4H-1,2,4-triazol-3-yl)methyl)cyclobutyl)phenyl)-7-(((S)-3-methylpiperidin-1-yl)methyl)-1H-pyrrolo[3,2-b]pyridine-5-carboxamide]
16 | 1.3 nM | 0.5 nM | C[C@H](NCc1cc(C(=O)Nc2cccc([C@]3(c4nncn4C)C[C@@H](C)C3)c2)nc2c(F)c[nH]c12)C1CCC1 [Compound B38, 7-((((S)-1-cyclobutylethyl)amino)methyl)-3-fluoro-N-(3-((1s,3R)-3-methyl-1-(4-methyl-4H-1,2,4-triazol-3-yl)cyclobutyl)phenyl)-1H-pyrrolo[3,2-b]pyridine-5-carboxamide]

— patent US20250163047A1, “HETEROCYCLIC COMPOUNDS, COMPOSITIONS THEREOF, AND METHODS OF TREATMENT THEREWITH” (BeiGene, Ltd., priority 2022, published 2025)
